Reference: ChEMBL document CHEMBL3886334, “Fragment ligated inhibitors selective for the polo box domain of PLK1” (2015)

Biological target: Serine/threonine-protein kinase PLK1 (Homo sapiens, UniProt P53350)
Assay: Fluorescent Polarization Binding Assay: The buffer composition was 50 mM Tris, 200 mM NaCl, 2.0 mM DTT, and 0.005% Tween 20 (pH 8.0). Fragment ligated inhibitors and comparison peptides to be tested in the binding assay were dissolved in dimethyl sulfoxide (DMSO) to a concentration of 10 mM, compounds were utilized in a range of concentrations from 10 nM to 600 μM. The PLK1 PBD protein (residues …

Sequence of Serine/threonine-protein kinase PLK1 (P53350 whole entry, the tested form may be a part): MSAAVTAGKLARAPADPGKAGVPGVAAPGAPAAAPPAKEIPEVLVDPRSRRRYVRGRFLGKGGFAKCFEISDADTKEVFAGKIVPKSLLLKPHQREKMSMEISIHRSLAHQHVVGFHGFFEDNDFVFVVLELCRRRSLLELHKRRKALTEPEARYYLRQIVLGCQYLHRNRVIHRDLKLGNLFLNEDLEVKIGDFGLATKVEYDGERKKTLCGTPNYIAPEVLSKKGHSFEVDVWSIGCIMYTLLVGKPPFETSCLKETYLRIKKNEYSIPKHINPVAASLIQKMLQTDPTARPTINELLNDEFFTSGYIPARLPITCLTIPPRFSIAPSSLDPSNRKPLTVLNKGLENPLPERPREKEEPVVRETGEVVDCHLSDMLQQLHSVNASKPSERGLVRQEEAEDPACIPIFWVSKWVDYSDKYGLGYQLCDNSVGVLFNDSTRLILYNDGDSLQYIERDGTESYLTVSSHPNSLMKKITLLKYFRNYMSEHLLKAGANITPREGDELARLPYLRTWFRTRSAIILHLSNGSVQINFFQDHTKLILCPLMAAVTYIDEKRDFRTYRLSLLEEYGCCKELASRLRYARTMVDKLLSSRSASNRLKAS

Row | IC50 [µM] | Structure (SMILES)
1 | 31.2 | CNC(=O)c1ccc(NC)cc1
2 | 500 | CNC(=O)c1cc(-c2ccccc2)c(C(F)(F)F)s1
3 | 16.5 | CCCNc1ccc(C(=O)NC)cc1
4 | 64.7 | CCOc1ccc(C(=O)NC)cc1
5 | 380 | CNC(=O)c1cc(-c2cccc(OC)c2)n[nH]1
6 | 104 | CNC(=O)c1cccc2ccccc12
7 | 600 | CNC(=O)c1cc(-c2ccccc2)n(-c2ccccc2)c1C
8 | 10.8 | CCCc1ccc(C(=O)NC)cc1
9 | 350 | CNC(=O)CN1C(=O)COc2ccc(C)cc21
10 | 300 | CNC(=O)c1cc(OC)c2c(c1)OCCO2
11 | 16.5 | CCc1ccc(C(=O)NC)cc1
12 | 29.5 | CCCOc1ccc(C(=O)NC)cc1
13 | 18.5 | CNC(=O)c1ccc(SC)cc1
14 | > 600 | CNC(=O)c1sc(C(F)(F)F)c(-c2ccccc2)c1N
15 | 250 | CNC(=O)Cn1cc(-c2ccc(C)cc2)ncc1=O
16 | 125 | CNC(=O)c1ccc(OC)cc1
17 | 99 | CNC(=O)c1ccc(OC)c2ccccc12
18 | 375 | CNC(=O)c1cn(S(=O)(=O)c2ccccc2)c2ccccc12
19 | 8.6 | CCCCc1ccc(C(=O)NC)cc1
20 | 400 | CNC(=O)c1ccc2ncccc2c1
21 | 320 | CNC(=O)c1ccc(-c2noc(C)n2)cc1
22 | 475 | CNC(=O)CSc1ncnc2sc(C)cc12
